These results are taken from patent US9517228B2, “Cannabinoid receptor antagonists/inverse agonists useful for treating metabolic disorders, including obesity and diabetes” (Jenrin Discovery, priority 2012, dated 2016).

In one assay the target is CB1R (Mus musculus (Mouse), UniProt P47746). Kind of assay: CB1R competition displacement binding with [3H]CP-55,940. As to conditions: [3H]CP-55,940 radioligand, crude membranes from mouse brain, triplicates; read-out: CB1 IC50. As for the experimental part:
Compound binding to CB1R was assessed in competition displacement assays using [3H]CP-55,940 as the radioligand and crude membranes from mouse brain. See Tam, J., Vemuri, V. K., Liu, J., Batkai, S., Mukhopadhyay, B., Godlewski, G., Osei-Hyiaman, D., Ohnuma, S., Ambudkar, S. V., Pickel, J., et al., J. Clin. Invest. 2010, 120, 2953-2966. All data were in triplicates with Ki values determined from three independent experiments.

For assay [1] the following is noted: type 2 diabetes patients not on other anti-diabetic medications, six months of treatment, baseline value 7.9; cited from earlier work.

A value given as a limit tells only on which side of the number the result lay.

Sequence of CB1R (P47746 whole entry): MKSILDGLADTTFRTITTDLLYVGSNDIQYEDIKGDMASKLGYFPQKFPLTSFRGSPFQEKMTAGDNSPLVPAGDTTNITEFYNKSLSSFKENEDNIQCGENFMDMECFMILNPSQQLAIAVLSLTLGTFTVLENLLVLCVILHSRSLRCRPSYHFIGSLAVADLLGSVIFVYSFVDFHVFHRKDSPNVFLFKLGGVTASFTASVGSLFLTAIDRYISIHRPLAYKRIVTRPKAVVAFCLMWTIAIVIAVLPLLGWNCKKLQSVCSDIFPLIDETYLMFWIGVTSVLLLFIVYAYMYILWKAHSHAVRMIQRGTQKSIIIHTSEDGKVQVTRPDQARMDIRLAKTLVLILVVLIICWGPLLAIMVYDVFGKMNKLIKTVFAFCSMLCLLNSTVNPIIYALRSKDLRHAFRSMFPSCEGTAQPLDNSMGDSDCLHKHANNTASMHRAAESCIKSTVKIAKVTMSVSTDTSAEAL

For `C[C@@H](O)[C@H](N/C(=N\S(=O)(=O)c1ccc(Cl)cc1)N1C[C@H](c2ccccc2)C(c2ccc(Cl)cc2)=N1)C(N)=O` [Example 2, (2S,3R)-2-((S)-3-(4-chlorophenyl)-N′-((4-chlorophenyl)sulfonyl)-4-phenyl-4,5-dihydro-1H-pyrazole-1-carboximidamido)-3-hydroxybutanamide], on CB1R, the IC50 (as a rule, the concentration needed to halve the response being measured) was < 100 nM. On to `Cc1c(C(=O)NN2CCCCC2)nn(-c2ccc(Cl)cc2Cl)c1-c1ccc(Cl)cc1` [rimonabant], for which the HbA1c levels lowered in assay [1] is given as 0.8%. In the case of `NC(=O)[C@H](CO)N/C(=N\S(=O)(=O)c1ccc(Cl)cc1)N1C[C@H](c2ccccc2)C(c2ccc(Cl)cc2)=N1` [Example 3], on CB1R, the IC50 is < 100 nM. Consider `NC(=O)[C@H](CO)N/C(=N\S(=O)(=O)c1ccc(Cl)cc1)N1C[C@@H](c2ccccc2)C(c2ccc(Cl)cc2)=N1` [Example 3a], for which the IC50 at CB1R is 500 to 1000 nM. Still for that read-out and setting: with `CC(C)[C@H](N/C(=N\S(=O)(=O)c1ccc(Cl)cc1)N1C[C@H](c2ccccc2)C(c2ccc(Cl)cc2)=N1)C(N)=O` [Example 4] the figure was < 100 nM. The same measure, in the same setting: with `CC(C)[C@H](N/C(=N\S(=O)(=O)c1ccc(Cl)cc1)N1C[C@@H](c2ccccc2)C(c2ccc(Cl)cc2)=N1)C(N)=O` [Example 4a] the figure was > 1000 nM; with `NC(=O)CN/C(=N\S(=O)(=O)c1ccc(Cl)cc1)N1C[C@H](c2ccccc2)C(c2ccc(Cl)cc2)=N1` [Example 1], < 100 nM; with `NC(=O)CN/C(=N\S(=O)(=O)c1ccc(Cl)cc1)N1C[C@@H](c2ccccc2)C(c2ccc(Cl)cc2)=N1` [Example 1a], > 1000 nM. Still for that read-out and setting: the value for `C[C@@H](O)[C@H](N/C(=N\S(=O)(=O)c1ccc(Cl)cc1)N1C[C@@H](c2ccccc2)C(c2ccc(Cl)cc2)=N1)C(N)=O` [Example 2a, (2S,3R)-2-((R)-3-(4-chlorophenyl)-N′-((4-chlorophenyl)sulfonyl)-4-phenyl-4,5-dihydro-1H-pyrazole-1-carboximidamido)-3-hydroxybutanamide] was > 1000 nM.
